Experimental findings from patent US6991812B2, “Agent for preventing, improving or treating hypertension” (Kao Corporation, priority 2000, dated 2006) are described below.

The test concerns male spontaneous hypertensive rats (SHR). The test is described as follows: Immediate effect on blood pressure in SHR, 1 hour after oral administration, tail artery systolic blood pressure. The format is in vivo, rat. Particulars: Example 6, organic acid, SHR aged 15 weeks, mean ± standard error. How it is done:
The blood pressure of each of male spontaneous hypertensive rats (SHR) was preliminarily continuously measured for 7 days by means of a commercially available non-invasive sphygmomanometer (manufactured by Softlon Co.), thereby fully accustoming the rats to the sphygmomanometry, and an evaluation test was then started. All the rats were bred (in a breeding chamber in a rat zone) under conditions of a temperature of 25±1° C., a relative humidity of 55±10% and a lighting time of 12 hours (from 7 a.m. to 7 p.m.).
The thus-obtained test results were expressed by a mean and standard error to conduct a Student's t-test. A level of significance was defined as at most 5%.
Six rats aged 15 weeks at the time the administration test was started were used in each group. The systolic blood pressure of a tail artery of each rat was measured after 1 hour from the beginning of the administration.
In Control Group, water was orally administered. In Comparative Group 1, a 0.2% aqueous solution of ferulic acid was orally administered. […]
Six rats aged 15 weeks at the time the administration test was started were used in each group. The systolic blood pressure of a tail artery of each rat was measured after 1 hour from the beginning of oral administration. […]
In Control Group, a 1% aqueous solution of sugar was orally administered. […] The dose was determined to be 15 mL/kg.

SMILES strings stand for the structures.

With `COc1cc(/C=C/C(=O)O)ccc1O` [Comp. Group 2, ferulic acid], the “Systolic blood pressures, Before administration” value (n=6, baseline) worked out at 208.0 ± 4.1 mmHg. The “Systolic blood pressures, After 1 hour from administration” value (n=6, oral aqueous solution) came out at 179.7 ± 4.4 mmHg.
